Assay results taken from ChEMBL document CHEMBL5120857, “Rational design, synthesis and biological evaluation of dual PARP-1/2 and TNKS1/2 inhibitors for cancer therapy” (Eur J Med Chem, 2022).
Active and inactive are the calls of the source. No cut-off for these calls is given here.

Tests used:
[1] = target: T1, Poly [ADP-ribose] polymerase 1 (Homo sapiens, UniProt P09874); conditions: dose 10.0 nM, time 45.0 min
[2] = target: T2, Poly [ADP-ribose] polymerase tankyrase-2 (Homo sapiens) (UniProt Q9H2K2); conditions: dose 10.0 nM, time 1.0 hrs
T2 sequence (whole entry): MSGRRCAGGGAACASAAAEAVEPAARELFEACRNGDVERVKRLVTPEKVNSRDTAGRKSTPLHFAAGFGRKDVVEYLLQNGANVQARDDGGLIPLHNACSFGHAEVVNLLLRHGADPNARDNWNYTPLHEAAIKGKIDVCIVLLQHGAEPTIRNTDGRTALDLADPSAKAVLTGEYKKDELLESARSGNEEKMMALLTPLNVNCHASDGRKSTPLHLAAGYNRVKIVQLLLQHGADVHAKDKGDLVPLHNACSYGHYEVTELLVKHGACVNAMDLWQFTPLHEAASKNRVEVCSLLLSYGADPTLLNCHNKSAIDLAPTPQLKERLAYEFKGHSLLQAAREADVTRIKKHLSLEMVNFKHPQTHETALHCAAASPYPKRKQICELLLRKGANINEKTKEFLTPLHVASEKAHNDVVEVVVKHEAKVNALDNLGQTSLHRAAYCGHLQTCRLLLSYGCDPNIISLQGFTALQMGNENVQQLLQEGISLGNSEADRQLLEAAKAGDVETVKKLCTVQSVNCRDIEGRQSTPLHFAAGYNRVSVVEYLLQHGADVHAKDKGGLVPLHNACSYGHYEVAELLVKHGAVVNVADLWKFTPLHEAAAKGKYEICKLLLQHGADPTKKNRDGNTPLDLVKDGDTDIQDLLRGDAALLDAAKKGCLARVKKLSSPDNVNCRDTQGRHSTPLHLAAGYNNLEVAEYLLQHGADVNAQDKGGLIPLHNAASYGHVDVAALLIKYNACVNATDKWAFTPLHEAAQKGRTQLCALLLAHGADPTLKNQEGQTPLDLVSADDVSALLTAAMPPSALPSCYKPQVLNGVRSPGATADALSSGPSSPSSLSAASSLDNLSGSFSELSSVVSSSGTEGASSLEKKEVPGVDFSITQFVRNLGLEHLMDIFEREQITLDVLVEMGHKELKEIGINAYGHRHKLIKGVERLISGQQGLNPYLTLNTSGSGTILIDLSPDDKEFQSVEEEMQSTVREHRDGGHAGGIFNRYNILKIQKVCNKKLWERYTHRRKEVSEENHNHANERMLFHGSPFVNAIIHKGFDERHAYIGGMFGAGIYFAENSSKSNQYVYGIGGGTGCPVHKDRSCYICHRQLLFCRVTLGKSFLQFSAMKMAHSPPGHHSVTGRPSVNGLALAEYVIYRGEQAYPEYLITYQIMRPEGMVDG

[3] = target: T1, Poly [ADP-ribose] polymerase 1; test: Inhibition of PARP-1 (unknown origin) using biotinylated NAD+ as substrate incubated for 45 mins in the presence of deoxy-oligonucleotide by microplate reader method relative to control
[4] = target: T3, Poly [ADP-ribose] polymerase tankyrase-1 (Homo sapiens, UniProt O95271); test: Inhibition of TNKS1 (unknown origin) using biotin-NAD+ as substrate incubated for 1 hr in the presence of deoxy-oligonucleotide by ELISA analysis relative to control
T3 sequence (O95271 whole entry): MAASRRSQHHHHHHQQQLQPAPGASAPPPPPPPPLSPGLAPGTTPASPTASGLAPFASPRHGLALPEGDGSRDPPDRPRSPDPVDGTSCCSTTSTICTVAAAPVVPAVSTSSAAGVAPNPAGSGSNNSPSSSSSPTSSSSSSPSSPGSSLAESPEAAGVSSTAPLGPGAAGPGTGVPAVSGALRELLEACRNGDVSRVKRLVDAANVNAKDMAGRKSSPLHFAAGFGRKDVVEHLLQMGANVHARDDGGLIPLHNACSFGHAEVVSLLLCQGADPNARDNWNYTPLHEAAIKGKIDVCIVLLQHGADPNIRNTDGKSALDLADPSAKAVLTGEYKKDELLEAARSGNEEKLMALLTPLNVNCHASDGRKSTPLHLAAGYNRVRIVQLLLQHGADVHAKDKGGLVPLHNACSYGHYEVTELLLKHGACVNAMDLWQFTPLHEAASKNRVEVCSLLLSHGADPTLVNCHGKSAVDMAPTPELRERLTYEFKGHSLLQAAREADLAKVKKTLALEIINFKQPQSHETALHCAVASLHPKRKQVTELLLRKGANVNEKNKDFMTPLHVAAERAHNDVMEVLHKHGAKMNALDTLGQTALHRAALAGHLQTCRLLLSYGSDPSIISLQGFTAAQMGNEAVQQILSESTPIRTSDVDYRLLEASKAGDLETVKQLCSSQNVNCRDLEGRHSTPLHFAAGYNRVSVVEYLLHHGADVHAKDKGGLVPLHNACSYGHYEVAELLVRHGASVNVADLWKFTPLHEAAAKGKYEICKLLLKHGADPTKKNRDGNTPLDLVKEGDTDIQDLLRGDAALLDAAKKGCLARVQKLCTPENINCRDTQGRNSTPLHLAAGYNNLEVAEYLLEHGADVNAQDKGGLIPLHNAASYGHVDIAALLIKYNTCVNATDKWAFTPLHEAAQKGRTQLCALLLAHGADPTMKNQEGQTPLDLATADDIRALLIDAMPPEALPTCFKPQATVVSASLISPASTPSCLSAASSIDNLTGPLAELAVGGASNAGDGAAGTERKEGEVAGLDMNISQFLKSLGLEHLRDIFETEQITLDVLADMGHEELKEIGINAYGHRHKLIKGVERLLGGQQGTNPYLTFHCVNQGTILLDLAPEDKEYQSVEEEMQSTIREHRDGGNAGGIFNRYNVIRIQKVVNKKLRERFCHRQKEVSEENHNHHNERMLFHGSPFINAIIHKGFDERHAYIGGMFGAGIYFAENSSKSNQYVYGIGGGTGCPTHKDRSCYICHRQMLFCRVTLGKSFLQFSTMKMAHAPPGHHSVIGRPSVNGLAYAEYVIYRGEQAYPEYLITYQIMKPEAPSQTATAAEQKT

[5] = target: T4, Poly [ADP-ribose] polymerase tankyrase-2 (Homo sapiens, UniProt Q9H2K2); test: Inhibition of TNKS2 (unknown origin) using biotin-NAD+ as substrate incubated for 1 hr in the presence of deoxy-oligonucleotide by ELISA analysis relative to control
T4 sequence (Q9H2K2 whole entry): T2 sequence (whole entry)

[6] = target: T5, Poly [ADP-ribose] polymerase tankyrase-1 (Homo sapiens) (UniProt O95271); conditions: dose 10.0 nM, time 1.0 hrs
T5 sequence (whole entry): T3 sequence (O95271 whole entry)

HCT-116 [7] = test: Inhibition of Wnt/beta-Catenin signaling in human HCT-116 cells assessed as increase in axin2 levels at 10 uM by Western blot analysis; type: cell-based
HCT-116 [8] = test: Inhibition of Wnt/beta-Catenin signaling in human HCT-116 cells assessed as decrease in cyclin D1 levels at 10 uM by Western blot analysis; type: cell-based
HCT-116 [9] = test: Inhibition of PARP in human HCT-116 cells assessed as decrease in pADPr levels at 10 uM by Western blot analysis; type: cell-based

T1 sequence (P09874 whole entry): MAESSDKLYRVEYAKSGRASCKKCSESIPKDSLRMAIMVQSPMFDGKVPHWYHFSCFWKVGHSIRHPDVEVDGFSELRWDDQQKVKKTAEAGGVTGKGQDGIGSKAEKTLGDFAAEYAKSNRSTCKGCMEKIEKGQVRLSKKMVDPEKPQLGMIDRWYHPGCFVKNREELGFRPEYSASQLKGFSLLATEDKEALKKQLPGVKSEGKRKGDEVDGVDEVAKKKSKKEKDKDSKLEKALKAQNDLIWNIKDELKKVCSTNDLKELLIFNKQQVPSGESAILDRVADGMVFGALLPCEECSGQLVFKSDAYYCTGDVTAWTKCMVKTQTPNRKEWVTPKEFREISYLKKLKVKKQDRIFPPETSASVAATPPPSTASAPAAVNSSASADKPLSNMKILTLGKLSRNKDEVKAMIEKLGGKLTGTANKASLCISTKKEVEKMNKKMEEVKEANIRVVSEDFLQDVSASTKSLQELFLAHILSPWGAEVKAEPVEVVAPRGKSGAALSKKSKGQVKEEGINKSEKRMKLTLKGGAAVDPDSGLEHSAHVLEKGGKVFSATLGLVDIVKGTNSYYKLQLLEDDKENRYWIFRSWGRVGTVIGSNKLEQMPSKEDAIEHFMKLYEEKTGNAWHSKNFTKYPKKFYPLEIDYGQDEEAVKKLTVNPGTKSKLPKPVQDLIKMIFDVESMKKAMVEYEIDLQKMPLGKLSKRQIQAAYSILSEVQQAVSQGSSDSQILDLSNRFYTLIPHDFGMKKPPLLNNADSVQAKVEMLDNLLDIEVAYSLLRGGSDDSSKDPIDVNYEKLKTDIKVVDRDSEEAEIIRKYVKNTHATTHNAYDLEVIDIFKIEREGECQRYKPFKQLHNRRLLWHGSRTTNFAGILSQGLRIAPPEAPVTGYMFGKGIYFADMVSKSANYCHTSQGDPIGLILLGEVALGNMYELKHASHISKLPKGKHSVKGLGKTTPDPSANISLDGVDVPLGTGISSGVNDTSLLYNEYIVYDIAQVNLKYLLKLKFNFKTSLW

Row | inhibition [1] | inhibition [2] | inhibition [6] | SMILES | other results
1 | 99% | 29.5% |  | Cc1cccc(NC(=O)c2ccc(NC(=O)N3CCN(C(=O)c4cc(Cc5n[nH]c(=O)c6ccccc56)ccc4F)CC3)cc2)c1 | 
2 | 96% | 28% |  | O=C(Nc1cccc2cccnc12)c1ccc(NC(=O)N2CCN(C(=O)c3cc(Cc4n[nH]c(=O)c5ccccc45)ccc3F)CC2)cc1 | 
3 |  |  | 86% | Oc1nc(-c2ccc(C(F)(F)F)cc2)nc2c1CSCC2 | inhibition (HCT-116 [7]): Active; inhibition (HCT-116 [8]): Active; inhibition (HCT-116 [9]): Active

More lines, now with the values behind:

Row | SMILES | inhibition [1] | inhibition [2] | inhibition [6] | other results
4 | O=C(Nc1cccc(F)c1)c1ccc(NC(=O)N2CCN(C(=O)c3cc(Cc4n[nH]c(=O)c5ccccc45)ccc3F)CC2)cc1 | 98% | 26% |  | 
5 | COc1ccc(NC(=O)C2CCN(CC(=O)N3CCN(C(=O)c4cc(Cc5n[nH]c(=O)c6ccccc56)ccc4F)CC3)CC2)cc1 | 98% |  |  | 
6 | O=C(Nc1ccc(C(F)(F)F)cc1)c1ccc(NC(=O)N2CCN(C(=O)c3cc(Cc4n[nH]c(=O)c5ccccc45)ccc3F)CC2)cc1 | 98% | 28% | 12.5% | IC50 [3]: 4.08 nM; IC50 [4]: 551 nM; IC50 [5]: 367 nM
7 | COc1ccc(NC(=O)c2ccc(NC(=O)N3CCN(C(=O)c4cc5cccc(C(N)=O)c5o4)CC3)cc2)cc1 | 51.5% | 22.5% | 22.5% | 
